In paper PMC2990584, “Phase Ib study of CP-868,596, a PDGFR inhibitor, combined with docetaxel with or without axitinib, a VEGFR inhibitor” (British Journal of Cancer, 2010):

Experiments:
advanced solid tumours = assay: Antitumour activity (RECIST, FDG-PET, CT); format: in vivo, human; conditions: single patient, metastatic epithelioid sarcoma
Method: Radiological assessments were conducted at screening and within 7 days prior to cycle 1 docetaxel dose for DLs 1–3, and at screening and cycle 2 day 1 for DL 4. Subsequent assessments were every other cycle for all DLs.

[1] = Pharmacokinetics in patients (HPLC/tandem MS, non-compartmental); format: in vivo, human
Method: In DL 4, sampling was conducted on day 8 (CP-868,596, axitinib, and docetaxel) and day 9 (CP-868,596 and axitinib) of cycle 1: samples were collected at 0 h (predose) and 1, 1.75, 3, 4.5, and 6.5 h post-dose on day 8 and at 0 h (predose) on day 9 for CP-868,596 and axitinib. Docetaxel concentrations were assessed at 1 (end of infusion), 1.75, and 6.5 h post-dose on day 8. Concentrations of CP-868,596, docetaxel, and axitinib were determined using validated HPLC/tandem mass spectrometry (HPLC/TMS) methods. Analytes were detected using an Applied-Biosystem Sciex API 3000/4000 LC/TMS system (MDI SCIEX, Concord, ON, Canada) operating in positive ion Electrospray mode. Non-compartmental pharmacokinetic analysis was performed using WinNonlin, version 3.2 (Pharsight, Mountain View, CA, USA). […] Tmax, half-life (t1/2), AUC0–48, and AUC0–infinity. […] Descriptive statistics were used when analysing patient demographics, safety, and tumour response data. Paired t-test was used to assess the impact of co-administration of docetaxel on CP-868,596 pharmacokinetics.

tumour vasculature = assay: DCE-MRI tumoural analysis; format: in vivo, human; conditions: DL 2, eight patients
Method: The DCE time course in the tumour was analysed on a pixel-by-pixel basis by fitting the data to the Kety equation and by integrating the area under the initial (i.e. the first 90 s) uptake curve. The contrast-agent concentration time course in plasma and tissue was inferred from the change in T1-weighted signal as a function of time. The Kety equation fitted the tissue contrast-agent time course to a two-compartment model: […] Ct are plasma and tissue concentration, respectively, K^trans is volume endothelial transfer constant between plasma and the extracellular extravascular space (EES), and Ve is fractional EES volume ([Ashton et al, 2008]).

PDGFR signalling pathway = assay: Blood biomarkers of the PDGFR signalling pathway (SDS-PAGE, LI-COR); format: in vivo, human
Method: Blood samples for the evaluation of biomarkers potentially related to the PDGFR signalling pathway (serum Src homology phosphatase (SHP)2, phopho(p)-SHP2, pAKT, and pS6) were collected within 4 days of baseline and on day 14 in each cohort. Protein levels were analysed using gel electrophoresis (SDS–PAGE) and the LI-COR immunodetection system with appropriate antibodies.

PDGFR-β tyrosine kinase = biological target: PDGFR-β tyrosine kinase; design: method as in Lewis et al, 2009; conditions: ref Lewis et al, 2009, cited from earlier work
[2] = system: patients with advanced cancers; design: method as in Lewis et al, 2009; conditions: ref Lewis et al, 2009, cited from earlier work
xenograft models = system: xenograft models; design: method as in Whalen et al, 2005; conditions: ref Whalen et al, 2005; cited from earlier work
[3] = system: patients with advanced solid tumors; design: method as in Rugo et al, 2005; conditions: ref Rugo et al, 2005; cited from earlier work
[4] = system: PDGFR-β overexpressing mesothelioma cell lines; design: method as in Wilmink and Richel, 2008; conditions: in vitro; ref Wilmink and Richel, 2008; cited from earlier work

CC1(COc2ccc3c(c2)ncn3-c2ccc3cccc(N4CCC(N)CC4)c3n2)COC1 [CP-868,596]
FDG-PET response (advanced solid tumours): partial metabolic response
pharmacokinetic parameters and plasma concentration profiles on co-administration ([1]; co-administration of docetaxel or docetaxel plus axitinib): unaffected
impact of co-administration of docetaxel on Cmax and AUC0–tau ([1]; human, in vivo): no significant impact
perfused AUC, median percentage change at day 14 relative to baseline (tumour vasculature): −4.4%
perfused K^trans, median percentage change at day 14 relative to baseline (tumour vasculature): 12.7%
tumour volume, median percentage change at day 14 relative to baseline (tumour vasculature): 14.3
vascularised volume, median percentage change at day 14 relative to baseline (tumour vasculature): 16.6
SHP and pSHP relative to baseline (PDGFR signalling pathway; day 14, DL 1 and DL 2, n=10): unchanged
levels of pS6 in peripheral blood mononuclear cells relative to baseline (PDGFR signalling pathway; day 14, DL 1 and DL 2, n=11, P=0.021): significantly decreased
levels of pAKT relative to baseline (PDGFR signalling pathway; day 14, DL 1 and DL 2, n=12): non-significant increase
IC50 (PDGFR-β tyrosine kinase; PDGFR-β tyrosine kinase): 0.4 ng ml^–1
selectivity for PDGFR vs other related kinases (PDGFR-β tyrosine kinase): 50–100 fold
most common toxicities [2]: nausea, vomiting, diarrhoea, and transaminitis
recommended dosage ([2]; single agent, with food): 100 mg twice daily (BID)
Dose-limiting toxicities (DLTs) identified ([2]; single agent): haematuria, transaminitis, insomnia, and nausea/vomiting
cytotoxicity of docetaxel and gemcitabine on combination (xenograft models): increased

CNC(=O)c1ccccc1Sc1ccc2c(/C=C/c3ccccn3)n[nH]c2c1 [axitinib]
main toxicities [3]: fatigue, nausea, diarrhoea, and hypertension

Cc1ccc(NC(=O)c2ccc(CN3CCN(C)CC3)cc2)cc1Nc1nccc(-c2cccnc2)n1 [imatinib]
effect on cells [4]: induced cytotoxicity and apoptosis
